Measurements from PMC7006816, “Human β-Defensin 2 Mediated Immune Modulation as Treatment for Experimental Colitis” (Frontiers in Immunology, 2020).
Where no end group is shown, it is not given here.

Experiments:
[1] = test system: human primary PBMC's of ulcerative colitis patients; assay: Stimulation of PBMCs of ulcerative colitis patients with LPS, cytokine release; type: cell-based; details: LPS 20 pg/ml; 10 μg/mL hBD2; colitis patients n = 4; LegendPlex
Experimental: Heparinized blood was diluted 1/1 v/v with RPMI (Gibco) and was subjected to Ficoll-Paque Plus (GE healthcare) density centrifugation within 2 h of drawing. Plasma was collected from the top from individual donors and was kept on ice until it was used at 2% in the culture medium (autologous culture medium). Isolated PBMC's were re-suspended in autologous culture medium and seeded in 96-well culture plates with 115.500 cells per well (Figure 1) or 200.000 cells per well (Figure 2) in a total of 200 μl. PBMC's from the same donor were stimulated with 100, 10 or 1 μg/ml of hBD2 either alone or together with 20 pg/ml lipopolysaccharide (LPS) (E. coli, O111:B4, Sigma L4391) or with 0.3 μg/ml Pam3CSK4 (InvivoGen). The supernatants were collected after incubation at 37°C for 24 h, and stored at −80°C until cytokine measurement.
The experiment in Figure 2 was performed with 8 subjects (4 controls and 4 colitis patients) to study the impact of disease status on treatment efficacy. Clinical status of these subjects were subtotal remission (Simponi and Salofalk), remission (Vedolizumab), mild disease (Infliximab, Salofalk, and Prednisolon), and moderate disease (Vedolizumab). PBMCs from these subjects were analyzed for IL-1b, TNF-a, IFN-g, IL-12, and IL-23 expression using a human inflammation cytometric bead array (LegendPlex Biolegends) according to manufacturer's instructions.

[2] = test system: SCID mice with CD4+/CD25− T cell transfer colitis; assay: T cell transfer colitis model; type: in vivo, mouse
Experimental: This study was performed by the Department of Biomedical Science at the University of Catania according to directive 86/609 EEC and approved by Novozymes science ethics committee. 8 weeks old female BALB/c and C.B-17 female SCID mice were purchased from Harlan (Italy). Colitis was induced in severe combined immunodeficiency (SCID) mice by transplantation of CD4^+/CD25^− T cells from the BALB/c mice. Briefly, lymphomonocytes isolated from spleen or lymph nodes from BALB/c mice were subjected to negative selection of CD4^+ T cells. Afterwards, CD4^+/CD25^+ cells were positively isolated by binding to the beads from the CD4^+ T cell suspensions and the CD4^+/CD25^− were collected from supernatant. […] CD4^+/CD25^− cells were intraperitoneally injected to SCID mice at a concentration of 500,000 cells in a final volume of 0.2 ml RPMI 1640. Sham treated animals (n = 6) received 0.2 ml pure RPMI 1640. Diseased mice were randomized divided into 4 groups (n = 11) and treated once daily by s.c. application of PBS (vehicle), hBD2 (0.1 and 1 mg/kg, respectively) or 0.3 mg/kg Dexamethasone (Dexa., applied intraperitoneally). Treatments started 7 days post T cell transfer and continued daily for 86 days. Animals were weighed three times a week and monitored twice a week starting from day 42 for the clinical status, summarized as DAI. The DAI included body weight loss, stool consistency, and the presence of blood at the rectum. One animal in the vehicle and one in the Dexamethasone treated groups had to be sacrificed before the end of the study. At the end of the study, animals were sacrificed and the colon was removed and carefully cleaned for further analysis. First, the colon was weighed then a section from the middle was removed and fixed for pathologic survey. The rest of the colon (5 cm) was used to quantify the activity of myeloperoxidase in the tissue.
Myeloperoxidase activity was performed on 5 cm of colon previously frozen at −80°C. Colon was homogenized in 0.5% of HETAB dissolved in 10 mM of Phosphate-Citrate Buffer (pH 7.0) to enable the release of MPO enzyme from the neutrophil granules. Homogenated samples after three freeze-thaw cycles were spun at 3,000 × g at 4°C for 30 min. Pellets were resuspended in 0.5% HETAB in 10 mM Phosphate-Citrate Buffer and spun again at 3,000 × g at 4°C for 30 min. 500 ul of supernatant were delivered into a vial along with 500 ul of TMB in Phosphate-Citrate Buffer containing Perborate Sodium. Changes in absorbance at 620 and 450 nm were read by a spectrophotometer (IRIS). Peroxidase enzyme diluted in 0.5% HETAB in 10 mM Phosphate-Citrate Buffer and H2O was used as standard. Two-fold dilutions of standard were prepared at the highest concentration of 50 pg/ml. Reagents and samples were kept refrigerated. Substrate solution was prepared just before the assay. MPO activity expresses the amount of enzyme that is able to degrade […] of peroxide/min and it is expressed as U/g tissue weight.
Sections of the colon were taken from each animal and preserved in neutral buffered formaline for subsequent histological analysis. Sections were stained using haematoxylin and eosin for further scoring.

[3] = hBD2 1 mg/kg s.c. daily, n = 11

## human β-defensin 2 (GIGDPVTCLKSGAICHPVFCPRRYKQIGTCGLPGTKCCKKP; not fully specified; ends and bridges not checked) [hBD2, Recombinant human β-defensin 2 expressed in E. coli as his-tagged thioredoxin fusion, cleaved and purified, natural tertiary structure]
[1]
  Proinflammatory immune response (IL-1β, TNF-α, INF-γ, IL-23, IL-12p70 release): successfully attenuated the proinflammatory immune response
[2]; hBD2 0.1 mg/kg s.c. daily, n = 11
  Outcome of T cell mediated colitis: did not improve the outcome of T cell mediated colitis
[2]; hBD2 1 mg/kg s.c. daily
  Histological analysis of colon: less signs of inflammation and tissue disruption
[2]; hBD2 1 mg/kg s.c. daily from day 7 after transfer, n = 11
  Weight change: less weight loss
[2]; hBD2 1 mg/kg s.c. daily, end of experiment, n = 11
  Colon weight: significantly reduced the colon weight
[2]; [3]
  DAI: improved DAI
  Stool score: Same trait was observed for the stool score
[2]; hBD2 s.c. daily (0.1 or 1 mg/kg), end of experiment
  Colonic myeloperoxidase activity: Only a minor effect
